# According to patent publication US4699907A, “4-morpholinyl-1H-indoles, pharmaceutical compositions and use” (Roussel Uclaf, priority 1985, dated 1987):
# Assays:
# male rats = experiment: Test of labyrinth in T after partial lesion of the septo hippocampic route; type: in vivo, rat; settings: electrolytic partial septo-hippocampic lesion, 20 mg/kg orally, 1 hour before test, days +5 to +8, compared to untreated animals
# Experimental: A: Test of labyrinth in T after partial lesion of the septo hippocampic route
# By means of an electrolytic partial lesion of neurons of the septo-hippocampic route, a disfunction of the cognitive faculty was provoked in male rats having acquired an apprenticeship in a labyrinth in the form of a T and then the speed of recovery of the disturbed memory faculties was measured. The animals got accustomed to their new environment on days -9 to -6 and rested on days -5 and -4. Their apprenticeship was carried out on days -3 to 0. At this time, the response of the rats was positive at 75-80%. On day 0, the lesion was carried out and the animals rested on days +1 to +3. The animals were tested on day +4 and at this time, only 50% of the responses were positive. From day +5 to +8, the rats were tested after being treated orally with the products under test 1 hour earlier. On day +11, the rats were tested without treatment. The percentage of positive responses of the treated animals were compared in relation to the untreated animals.
# enolase γγ = experiment: Test for enolase (kainic acid induced neuron lesions); type: in vivo; settings: mice; 1 mg/kg intraperitoneally one hour before 35 mg/kg sub-cutaneous kainic acid
# hippocampus of the rat = experiment: Test for neuron activation (accumulation of 2-deoxyglucose-6-phosphate); type: in vivo; settings: 14C 2-deoxyglucose tracer dose
# Experimental: C: Test for neuron activation
# Neuron activation causes an increase in the corresponding metabolism which is shown by an increase in the consumption of glucose, a proof of energy consumption. This increase was evaluated by measuring the accumulation in the neuron cells of 2deoxyglucose-6-phosphate stemming from the conversion by hexokinase of 2-deoxyglucose ^14 C, an analogue of glucose, administered as a tracer dose, which used the same route of entry into the cell as glucose.
# mice = experiment: Acute toxicity study; type: in vivo; settings: oral administration to mice
# Experimental: The lethal doses LDO of the different compounds tested were evaluated after oral administration to mice.
Compound,recovery of the memory functions (male rats),decrease of the serous concentration of enolase γγ (enolase γγ),accumulation of 2-deoxyglucose 6-P in the hippocampus (hippocampus of the rat),LDO (maximum dose which does not cause mortality in 8 days) (mice)
"CSC[C@H]1CN(C)C[C@@H](c2cccc3[nH]ccc23)O1 (relative stereo) [Example 4, 4-[(2R-cis) 4-methyl-6-[(methylthio)methyl]-2-morpholinyl]-1H-indole (dl)]",significantly improved the recovery of the memory functions,34%,increase in the accumulation of 2-deoxyglucose 6-P,200 mg/kg
"CN1C[C@H](CC#N)O[C@H](c2cccc3[nH]ccc23)C1 (relative stereo) [Example 5, (2SR, 6RS) 6-(1H-indol-4-yl)-4-methyl-2-morpholine acetonitrile]",,,,≥ 200 mg/kg
"CN1C[C@H](CO)O[C@H](c2cccc3[nH]ccc23)C1 (relative stereo) [Example 3, (2RS, 6RS) 6-(1H-indol-4-yl)-4-methyl-2-morpholine methanol]",,,,≥ 400 mg/kg
"N,N-diethyl 6-(1H-indol-4-yl)-4-methyl-2-morpholine carboxamide [Example 2]",,,,≥ 200 mg/kg
